The values below come from the NIST ThermoML archive (doi:10.1016/j.jct.2015.09.010).

SMILES strings stand for the structures. Numbers after ± are expanded uncertainties.

The conditions of the data set: 298.15 K; 101.33 kPa; Liquid; Pycnometric method.
As for `CC#N` [acetonitrile], the mass density is given as 777.1 ± 4.8 kg/m3.
Then `CCCCO` [butan-1-ol], with 806.1 ± 4.8 kg/m3; and `CCO` [ethanol], with 785.3 ± 4.8 kg/m3; and `CO` [methanol], with 786.6 ± 4.8 kg/m3.
Then `CCCO` [propan-1-ol], with 799.7 ± 4.8 kg/m3; and `CC(C)O` [propan-2-ol], with 781.1 ± 4.8 kg/m3.

Usually mass density stands for mass per unit of volume.
